This note sets out measurements from paper PMC9044549 (RSC Advances, 2021).

What is called IC50 is the concentration that gives 50% inhibition.

Experiment [1] concerns HCT-116, HepG-2 and MCF-7 cells. In kind it is cell-based. Conditions: Homo sapiens, read-out: IC50 values against the three cell lines (range).
Experiment [2] relates to MCF-7 breast cancer cells. In words: In vitro anti-proliferative activity, MTT assay. In kind it is cell-based. Conditions: Homo sapiens, MCF7, read-out: In vitro anti-proliferative activities MCF-7 IC50. On the technique in general: Formazan colour is commonly taken as a measure of viable cells.

Regarding `COc1cc(-c2ccc(C(=O)N/N=C/c3cc(C)ccc3C)c(C)n2)cc(OC)c1OC` [Vf, (E)-N′-(2,5-Dimethylbenzylidene)-2-methyl-6-(3,4,5-trimethoxyphenyl)nicotinohydrazide], the IC50 is 3.25 to 9.15 µM in experiment [1] and 6.32 ± 0.14 µM in experiment [2].
The matching figures for `COc1ccccc1/C=N/NC(=O)c1ccc(-c2cc(OC)c(OC)c(OC)c2)nc1C` [Vb, (E)-N′-(2-Methoxybenzylidene)-2-methyl-6-(3,4,5-trimethoxyphenyl)nicotinohydrazide]: 3.25 to 9.15 µM and 8.5 ± 0.24 µM.
On to `COc1cc(-c2ccc(C(=O)N/N=C/c3ccc(O)cc3)c(C)n2)cc(OC)c1OC` [Va, (E)-N′-(4-Hydroxybenzylidene)-2-methyl-6-(3,4,5-trimethoxyphenyl)nicotinohydrazide], for which the IC50 in experiment [1] was 10.8 to 31.5 µM; in experiment [2] it was 21.5 ± 0.67 µM.
With `CCOc1ccc(/C=N/NC(=O)c2ccc(-c3cc(OC)c(OC)c(OC)c3)nc2C)cc1` [Ve, (E)-N′-(4-Ethoxybenzylidene)-2-methyl-6-(3,4,5-trimethoxyphenyl)nicotinohydrazide], the IC50 in experiment [2] is 46.6 ± 0.95 µM.
`COc1cc(-c2ccc(-c3nnc(SCCCBr)o3)c(C)n2)cc(OC)c1OC` [VIIIc, 2-[(3-Bromopropyl)thio]-5-[2-methyl-6-(3,4,5-trimethoxyphenyl)pyridin-3-yl]-1,3,4-oxadiazole]: the IC50 was 10.8 to 31.5 µM in experiment [1] and 25.2 ± 0.64 µM in experiment [2].
The like results for `COc1cc(-c2ccc(-c3nnc(SC)o3)c(C)n2)cc(OC)c1OC` [VIIIa, 2-[2-Methyl-6-(3,4,5-trimethoxyphenyl)pyridin-3-yl]-5-(methylthio)-1,3,4-oxadiazole] were, in that order, 10.8 to 31.5 µM and 18.2 ± 0.55 µM.
The matching figures for `COc1cc(-c2ccc(C(=O)N/N=C/c3cc(Cl)ccc3Cl)c(C)n2)cc(OC)c1OC` [Vh, (E)-N′-(2,5-Dichlorobenzylidene)-2-methyl-6-(3,4,5-trimethoxyphenyl)nicotinohydrazide]: 10.8 to 31.5 µM and 30.1 ± 0.75 µM.
The matching figures for `COc1cc(-c2ccc(C(=O)N/N=C/c3ccc(Cl)cc3)c(C)n2)cc(OC)c1OC` [Vg, (E)-N′-(4-Chlorobenzylidene)-2-methyl-6-(3,4,5-trimethoxyphenyl)nicotinohydrazide]: 10.8 to 31.5 µM and 31.5 ± 0.7 µM.
Regarding `COc1cc(-c2ccc(C(=O)N/N=C/c3ccc([N+](=O)[O-])cc3)c(C)n2)cc(OC)c1OC` [Vj, (E)-2-Methyl-N′-(4-nitrobenzylidene)-6-(3,4,5-trimethoxyphenyl)nicotinohydrazide], the IC50 in experiment [1] is 3.25 to 9.15 µM; in experiment [2], 4.82 ± 0.05 µM.
Take `CCSc1nnc(-c2ccc(-c3cc(OC)c(OC)c(OC)c3)nc2C)o1` [VIIIb, 2-(Ethylthio)-5-[2-methyl-6-(3,4,5-trimethoxyphenyl)pyridin-3-yl]-1,3,4-oxadiazole]: the IC50 in experiment [2] amounted to 14.8 ± 0.37 µM.
For the compound `COc1cc(-c2ccc(C(=O)N/N=C/c3ccncc3)c(C)n2)cc(OC)c1OC` [Vk, (E)-2-Methyl-N′-(pyridin-4-ylmethylene)-6-(3,4,5-trimethoxyphenyl)nicotinohydrazide], the IC50 in experiment [1] is 10.8 to 31.5 µM; in experiment [2], 17.5 ± 0.57 µM.
The like results for `COc1cc(-c2ccc(-c3nnc(SCC4CCCCC4)o3)c(C)n2)cc(OC)c1OC` [VIIIe, 2-[(Cyclohexylmethyl)thio]-5-[2-methyl-6-(3,4,5-trimethoxyphenyl)pyridin-3-yl]-1,3,4-oxadiazole] were, in that order, 10.8 to 31.5 µM and 21.4 ± 0.45 µM.
Regarding `COc1ccc(/C=N/NC(=O)c2ccc(-c3cc(OC)c(OC)c(OC)c3)nc2C)cc1OC` [Vc, (E)-N′-(3,4-Dimethoxybenzylidene)-2-methyl-6-(3,4,5-trimethoxyphenyl)nicotinohydrazide], the results for the IC50 in experiment [1] and in experiment [2] were 3.25 to 9.15 µM and 9.15 ± 0.31 µM, respectively.
The matching figures for `COc1cc(OC)c(/C=N/NC(=O)c2ccc(-c3cc(OC)c(OC)c(OC)c3)nc2C)c(OC)c1` [Vd, (E)-2-Methyl-N′-(2,4,6-trimethoxybenzylidene)-6-(3,4,5-trimethoxyphenyl)nicotinohydrazide]: 10.8 to 31.5 µM and 15.8 ± 0.46 µM.
The matching figures for `CCCCCCSc1nnc(-c2ccc(-c3cc(OC)c(OC)c(OC)c3)nc2C)o1` [VIIId, 2-(Hexylthio)-5-[2-methyl-6-(3,4,5-trimethoxyphenyl)pyridin-3-yl]-1,3,4-oxadiazole]: 10.8 to 31.5 µM and 27.2 ± 0.68 µM.
